Patent publication US20230404985A1, “METHODS OF TREATING TUMORS AND CANCERS HAVING DYSREGULATED WNT SIGNALING PATHWAYS” (ICAHN SCHOOL OF MEDICINE AT MOUNT SINAI, priority 2020, published 2023)

Assays:
[1] = tested on: MYC-Tp53 tumor organoid allografts; test: MYC-Tp53 tumor organoid allografts; format: in vivo, C57BL/6J mice; details: 30 mg/kg daily oral gavage
Procedure: 300,000 cells per allograft were prepared in 8 mg/mL Matrigel. 6-8-week-old C57BL/6J mice were shaved the day prior to injection. A 26^5/8-gauge needle was used to implant organoids into the flank in 100 μL Matrigel. Tumor allografts were measured daily with calipers, and upon an average volumetric measurement of 100 mm^3, animals were randomized and drug dosing was started. Drugs were dosed daily at 30 mg/kg via oral gavage. Tumor allografts were also measured daily.
MYC-CTNNB1 tumor organoids were engrafted into C57BL/6 mice and treatment was started when tumor volume reached 100 mm^3.

[2] = tested on: KIT and its downstream effector the prenyl-binding protein PDE6D; test: NanoBRET live cell target engagement, KIT and PDE6D; format: cell-based
pT367 EZH2 and pT71 ATF2 = details: MYC-CTNNB1 organoids; WNTinib 1 μM, sorafenib 10 μM, SB202190 10 μM; 48 hours time course
Procedure: Tumor organoids were grown in 24 well plates and were collected in Cell Recovery Solution (Corning) after drug treatment. Tumor organoids were left to rotate at 4° C. for one hour in order to dissolve the Matrigel. Tumor organoids were spun down at 300 g at 4° C. for 5 minutes. Pellets were lysed in 2× Laemmli buffer (+4% 2-mercaptoethanol) by heating at 95° C. for 10 minutes followed by 5 seconds of sonication. SDS-PAGE was run using standard procedures.

| Compound | activity in MYC-Tp53 allografts [1] | also measured |
| --- | --- | --- |
| CNC(=O)c1cc(Oc2ccc(NC(=O)Nc3ccc(Cl)c(C(F)(F)F)c3)c(F)c2)ccn1 [regorafenib] | better activity | – |
| CNC(=O)c1cc(Oc2ccc(NC(=O)Nc3ccc(C(F)(C(F)(F)F)C(F)(F)F)cc3)c(F)c2)ccn1 [8-50-2, 4-(3-fluoro-4-(3-(4-(perfluoropropan-2-yl)phenyl)ureido)phenoxy)-N-methylpicolinamide] | – | binding on KIT and PDE6D, comparison of WNTinib with 8-50-2 [2]: significant differences in binding |
| COc1cc2nccc(Oc3ccc(NC(=O)NC4CC4)c(Cl)c3)c2cc1C(N)=O [lenvatinib] | better activity | – |
| Oc1ccc(-c2nc(-c3ccncc3)c(-c3ccc(F)cc3)[nH]2)cc1 [SB202190] | – | temporal inhibition of pT367 EZH2 and pT71 ATF2 (pT367 EZH2 and pT71 ATF2): transient inhibition |
